Experimental data taken from patent US11560400B2, “Salts of diphosphate phosphoramidate of nucleosides as anticancer compounds” (NuCana plc, priority 2017, dated 2023).
Where “and” joins values, the source holds several entries; their conditions need not be identical. Equal entries are not always repeated. Entries after “also recorded” stand apart in the source; their conditions may differ. Structures can show the parent of a compound that is named as a salt. Where two headings read alike, the source gives them in different places.

Legend:
Mia-Pa-Ca-2 = experiment: CellTiterGlo cell viability assay, Mia-Pa-Ca-2; format: cell-based; settings: Mia-Pa-Ca-2, 72 h
How it was run: (§1)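 Cells are exposed to compounds for 72 h at final concentrations of 198 μM down to 19.8 nM in 0.5% DMSO, then viability is quantified with CellTiterGlo.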

HT29 = experiment: CellTiterGlo cell viability assay, HT29; format: cell-based; settings: HT29, 72 h; for EC50: read-out: Ab EC50; for inhibition at 198 µM: read-out: Top Inhibit
How it was run: as §1

MCF-7 = experiment: CellTiterGlo cell viability assay, MCF-7; format: cell-based; settings: MCF-7, 72 h; for EC50: read-out: Ab EC50; for inhibition at 198 µM: read-out: Top Inhibit
How it was run: as §1

Human hepatocytes = settings: pooled cryopreserved hepatocytes, 1 μM, 0 and 120 min, 37° C.
OVCAR 3 = experiment: CellTiterGlo cell viability assay, OVCAR 3; format: cell-based; settings: Homo sapiens; for EC50: OVCAR 3, 72 h, Table 3 classes, read-out: Ab EC50
How it was run: as §1

CCRF-CEM = experiment: CellTiterGlo cell viability assay, CCRF-CEM; format: cell-based; settings: Homo sapiens, 72 h; for EC50: Table 3 classes, read-out: Ab EC50; for inhibition at 198 µM: percentage inhibition at the highest concentration tested, read-out: Top Inh
How it was run: as §1

MOLT-4 = experiment: CellTiterGlo cell viability assay, MOLT-4; format: cell-based; settings: Homo sapiens, MOLT-4, 72 h; for inhibition at 198 µM: percentage inhibition at the highest concentration tested, read-out: Top Inh; for EC50: Table 3 classes, read-out: Ab EC50
How it was run: as §1

K562 = experiment: CellTiterGlo cell viability assay, K562; format: cell-based; settings: Homo sapiens, K562, 72 h; for inhibition at 198 µM: percentage inhibition at the highest concentration tested, read-out: Top Inh; for EC50: Table 3 classes, read-out: Ab EC50
How it was run: as §1

HL-60 = experiment: CellTiterGlo cell viability assay, HL-60; format: cell-based; settings: Homo sapiens, HL-60, 72 h; for EC50: Table 3 classes, read-out: Ab EC50; for inhibition at 198 µM: percentage inhibition at the highest concentration tested, read-out: Top Inh
How it was run: as §1

RL = experiment: CellTiterGlo cell viability assay, RL; format: cell-based; settings: Homo sapiens, 72 h; for EC50: Table 3 classes, read-out: Ab EC50; for inhibition at 198 µM: percentage inhibition at the highest concentration tested, read-out: Top Inh
How it was run: as §1

RPMI-8226 = experiment: CellTiterGlo cell viability assay, RPMI-8226; format: cell-based, Human; settings: Homo sapiens, RPMI-8226, 72 h; for EC50: Table 3 classes, read-out: Ab EC50; for inhibition at 198 µM: percentage inhibition at the highest concentration tested, read-out: Top Inh
How it was run: as §1

KG1a cells = experiment: In vitro cytotoxicity, Annexin V/propidium iodide assay in KG1a cells; format: cell-based; settings: for change of potency (mean LD50) under hypoxic versus normoxic conditions: 5% oxygen; for Hypoxia Mean LD50 / Mean LD50 (Normoxia Mean LD50): 48 h; for Hypoxia Mean LD50: hypoxic (5% O2); for Mean LD50 (Normoxia Mean LD50): normoxic (20% oxygen); for mean LD50: normoxic; for Ratio Normoxia/Hypoxia: ratio of mean LD50 values
Protocol: The acute myeloid leukaemia (AML) KG1a cell line was maintained in RPMI medium (Invitrogen, Paisley, UK) supplemented with 100 units/mL penicillin, 100 μg/mL streptomycin and 20% foetal calf serum. Cells were subsequently aliquoted (10^5 cells/100 μL) into 96-well plates and were incubated at 37° C. in a humidified normoxic (20% oxygen) or hypoxic (1% or 5% oxygen) atmosphere for 48 h in the presence of clofarabine, or clofarabine diphosphate phosphoramidates of the invention (1×10^−10M-1×10^−6M). In addition, control cultures were carried out to which no drug was added. Cells were subsequently harvested by centrifugation and were analysed by flow cytometry using the Annexin V assay.
Cultured cells were harvested by centrifugation and then resuspended in 195 μL of calcium-rich buffer. Subsequently, 5 μL of Annexin V (Caltag Medsystems, Botolph Claydon, UK) was added to the cell suspension and cells were incubated in the dark for 10 mins prior to washing. Cells were finally resuspended in 190 μL of calcium-rich buffer together with 10 μL of propidium iodide. Apoptosis was assessed by dual-colour immunofluorescent flow cytometry as described previously. Subsequently LD50 values (the dose required to kill 50% of the cells in a culture) were calculated for each nucleoside analogue and diphosphate phosphoramidate.
The data obtained in these experiments were evaluated using one-way ANOVA. All data was confirmed as Gaussian or a Gaussian approximation using the omnibus K2 test. LD50 values were calculated from the non-linear regression and line of best-fit analysis of the sigmoidal dose-response curves. All statistical analyses were performed using Graphpad Prism 6.0 software (Graphpad Software Inc., San Diego, Calif.).
The in vitro drug sensitivity of KG1a cells was assessed using the Annexin V/propidium iodide assay.

[1] = tested on: Lin−/CD34+/CD38−/CD123+ LSCs of KG1a cells; experiment: Leukaemic stem cell (LSC) targeting in KG1a cells; format: cell-based; settings: in words
Protocol: KG1a cells were cultured for 48 h in the presence of a wide range of concentrations of each nucleoside analogue and their respective diphosphate phosphramidate. Cells were then harvested and labelled with a cocktail of anti-lineage antibodies (PE-cy7), anti-CD34 (FITC), anti-CD38 (PE) and anti-CD123 (PERCP cy5). The sub-population expressing a leukaemic stem cell (LSC) phenotype were subsequently identified and were expressed as a percentage of all viable cells left in the culture. The percentages of stem cells remaining were then plotted on a dose-response graph and the effects of the diphosphate phosphoramidate were compared with the parental nucleosides.

in vitro = settings: human, hepatocytes, pH 7.3
[2] = percentage inhibition at the highest concentration tested
[3] = Homo sapiens, HT-29, 72 h, Table 3 classes
[4] = Homo sapiens, HT-29, 72 h, percentage inhibition at the highest concentration tested
[5] = Homo sapiens, MCF7, 72 h, Table 3 classes
[6] = Homo sapiens, MCF7, 72 h, percentage inhibition at the highest concentration tested

Structure (SMILES)	EC50 (HT29; [3])	inhibition at 198 µM (HT29; [4])	EC50 (OVCAR 3)	EC50 (MCF-7; [5])	inhibition at 198 µM (MCF-7; [6])	EC50 (CCRF-CEM)	inhibition at 198 µM (CCRF-CEM)	inhibition at 198 µM (MOLT-4)	EC50 (MOLT-4)	inhibition at 198 µM (K562)	EC50 (K562)	EC50 (HL-60)	inhibition at 198 µM (HL-60)	EC50 (RL)	inhibition at 198 µM (RL)	EC50 (RPMI-8226)	inhibition at 198 µM (RPMI-8226)	change of potency (mean LD50) under hypoxic versus normoxic conditions (KG1a cells; in words)	Hypoxia Mean LD50 (KG1a cells)	Mean LD50 (Normoxia Mean LD50) (KG1a cells)	other results
Nc1ncnc2c1nc(Cl)n2[C@@H]1O[C@H](CO)[C@@H](O)[C@H]1O [8-Cl-Adenosine, reference compound]																					EC50 (Mia-Pa-Ca-2; absolute EC50, read-out: Ab EC50): 420 nM; Top Inhibit (Mia-Pa-Ca-2; [2]): 85%; EC50 (HT29; absolute EC50, numeric values): 1960 nM; Top Inhibit (HT29; [2]): 73%; EC50 (MCF-7; absolute EC50, numeric values): 1830 nM; Top Inhibit (MCF-7; [2]): 85.7%; Human hepatocytes Mean half-life (Human hepatocytes): >2 h
C[C@H](NP(=O)(Oc1ccccc1)OP(=O)(O)OC[C@H]1O[C@@H](n2cnc3c(N)nc(Cl)nc32)[C@H](F)C1O)C(=O)OCc1ccccc1 (stereo partly drawn) [Example 1, 2-Chloro-9-(2′-Deoxy-2′-fluoro-β-D-arabinofuranosyl)adenine-5′-O-[phenyl(benzoxy-L-alaninyl)] Diphosphate Triethylammonium Salt]	200 to 2000 nM	66%	> 10000 nM	200 to 2000 nM	59%	< 200 nM	98.7%	82.7%	< 200 nM	24%	> 10000 nM	< 200 nM	97%	200 to 2000 nM	70%	5000 to 10000 nM	91%	no significant difference in mean LD50 values; also recorded: reduction in potency was not observed	16.3 nM	13.7 nM	potency in KG1a cells (dose-response curves) (KG1a cells; in words): highest potency; also recorded: slightly more potent; mean LD50 (KG1a cells): 13.7 nM; Ratio Normoxia/Hypoxia (KG1a cells): 84.0; selectivity against LSCs [1]: trend towards increased selectivity; half-life (in vitro): 0.333 to 1.67 h
CCOC(=O)[C@H](C)NP(=O)(Oc1ccccc1)OP(=O)(O)OC[C@H]1O[C@@H](n2cnc3c(N)nc(Cl)nc32)[C@H](F)C1O (stereo partly drawn) [Example 2, 2-Chloro-9-(2′-Deoxy-2′-fluoro-β-D-arabinofuranosyl)adenine-5′-O-[phenyl(ethoxy-L-alaninyl)] Diphosphate Triethylammonium Salt]	200 to 2000 nM	62%	> 10000 nM	200 to 2000 nM	54%	< 200 nM	98.7%	98%	< 200 nM	29%	> 10000 nM	< 200 nM	98%	200 to 2000 nM	65%	5000 to 10000 nM	92%	reduction in potency was not observed	95.0 nM	71.0 nM	inhibition at 198 µM (OVCAR 3; OVCAR-3, 72 h, percentage inhibition at the highest concentration tested, read-out: Top Inhibit): 48%; mean LD50 (KG1a cells): 43.8 nM and 71 nM; Ratio Normoxia/Hypoxia (KG1a cells): 74.7; half-life (in vitro): 0.333 to 1.67 h
